The values below come from a melting point compilation (Tetko et al.; mined from patent text by program, amines drawn as free bases though some values may be those of a salt).

What is called melting point is the temperature, or range, at which the solid turns liquid. In turn, `O=C1c2ccccc2C(=O)N1CC#CC1=CCN=C(c2ccccc2F)c2cc(Cl)ccc21` returned a melting point of 164 to 165 °C.

With `CC1(C)CC(NC(=O)c2ccccc2)CC(C)(C)N1CC#N`, the melting point came out at 182 °C.

`CCn1ncc2c3noc(-c4cccc(Cl)c4)c3cnc21` had a melting point of 207 to 209 °C.

`CCC(=O)c1cc([C@]2(c3cccc(-c4cccnc4F)c3)N=C(N)N(C)C2=O)cn1CC`: the melting point lay in the range of 94 to 97 °C.

`CC(=O)N1C(C(=O)NCCO[N+](=O)[O-])CSC1c1ccccc1C(=O)O` (centres undefined) returned a melting point of 148 to 150 °C.

`COc1cc(OC)cc(OCCCCCN2CCC(CNC(=O)c3cc(Cl)c(N)cc3OC)CC2)c1`: the melting point fell in the range of 112 to 113 °C.

In the case of `Cc1cc(C2=NOC(c3cc(Cl)cc(Cl)c3)(C(F)(F)F)C2)ccc1C(=O)NC1CON(C)C1=O` (centres undefined), the melting point came out at 87 °C.

In turn, `CCc1nc2c(cnn2CC)c(NC2CCOCC2)c1CNC(=O)c1cccc(C(=O)NCc2ccc(Cl)c(-c3cccc(CN4CCCNCC4)c3)c2)c1` yielded a melting point of 116 to 119 °C.

`CCCCC1(N(C)C)CC=C(c2[nH]c3ccccc3c2CCN2C(=O)c3ccccc3C2=O)CC1` (centres undefined) yielded a melting point of 125 to 130 °C.

`CC1N=C(c2ccccc2)c2cc(Cl)ccc2NC1=O` (centres undefined) came in with a melting point of 224 °C.

In the case of `COc1nc(C)c2c(c1C#N)CCCC2=O`, the melting point worked out at 128 °C.

Regarding `O=C(O)CCC=C(c1ccccc1)c1ccccc1`, the melting point fell in the range of 80 to 81.5 °C.

As to `CC(C)(C)C(=O)N[Si](C)(C)C`, the melting point fell in the range of 101 to 106 °C.

In turn, `CCOc1ccc(-c2noc3c(Cl)c(OC)ccc23)c(F)c1` showed a melting point of 151 to 152 °C.

Consider `Nc1cccc(S(=O)(=O)N2CC=CC2)c1`, for which the melting point is 187 to 188 °C.

Consider `COc1ccc(CS[C@@H]2C[C@@H](C(=O)NN)N(S(=O)(=O)c3ccc4ccccc4c3)C2)cc1`, for which the melting point was 130 °C.

Regarding `CCCCOc1ccc(C=C(C#N)S(C)(=O)=O)cc1`, the melting point was 96.5 to 97 °C.

`CCc1nc(/C=C\c2cn(-c3ccccc3)nc2OCc2ccc(OCc3csc(N4CCCCC4)n3)c(OC)c2)cs1` displayed a melting point of 93 to 94 °C.

For the compound `CC(C)CNC(=NC#N)Nc1cccnc1`, the melting point is 148 to 149 °C.

Take `CCOC(=O)c1cnc2nc(C=CC(=O)O)c(OCC)cc2c1O`: the melting point was over 280 °C.

With `CCCCCCCN(CCCCCS(=O)c1nc(-c2ccccc2)c(-c2ccccc2)[nH]1)C(=O)Nc1ccc(F)cc1F` (centres undefined), the melting point lay in the range of 77 to 79 °C.

In turn, `Cn1ccc(=O)c2ccc(F)cc21` yielded a melting point of 146 to 149 °C.

`CC(C)(C)C(=O)N1CC=C(C#Cc2ccc3c(c2)NC(=O)CC(c2cccc(C#N)c2)=N3)CC1` came in with a melting point of 219 °C.

The compound `Cc1cnc2[nH]cc(/C=C3\N=C(N4CCN(c5ccccc5)CC4)NC3=O)c2c1` displayed a melting point of 331 to 332 °C.

Turning to `CCCOc1ccc(CC(C)=O)cc1S(N)(=O)=O`, the melting point was in the range of 106 to 107 °C.

`Nc1ccc(NCCCNc2cccc3c2C(=O)c2ccccc2C3=O)cc1`: the melting point lay in the range of 183 to 185 °C.

Compound `CCOC(=O)c1ccc(-c2ccc3c(c2)C(Nc2ccc(Cl)cc2)CC(C)N3C(C)=O)cc1` (centres undefined) gave a melting point of 114 °C.

On to `CCCCCS(=O)(=O)NC(=O)CCc1cc(C(C)C)nn1Cc1ccc(Cl)cc1Cl`, for which the melting point lay within 115 to 117 °C.

On to `CC(=O)C(C)Oc1nn(C(C)C(C)=O)c(-c2ccc(S(C)(=O)=O)cc2)c1-c1ccc(F)cc1` (centres undefined), for which the melting point is 127 to 129 °C.

On to `CCOC(=O)c1c2n(c3c(F)c(Cl)ccc3c1=O)CCS2`, for which the melting point worked out at 216 °C.

In turn, `O=C(O)c1cc(Oc2ccc(Cl)cc2Cl)ccc1Br` registered a melting point of 132 to 133 °C.

In the case of `O=c1[nH][nH]c2c1c(O)nc1cc(Cl)c(Cl)cc12`, the melting point was over 350 °C.

For `O=C(NC1=NCCC1)Nc1ccc(Br)cc1`, the melting point lay in the range of 221 to 224 °C.

Take `OC(CCSc1cccc2ccccc12)CCc1cccnc1` (centres undefined): the melting point lay in the range of 58 to 59 °C.

In the case of `CC(=O)Nc1ccc(C2=NNC(=O)NC2C)cc1` (centres undefined), the melting point lay in the range of 272 to 273 °C.

The compound `CC(C)(C)c1cc(CCC(=O)NCCNc2ccc(C#N)cc2)cc(C(C)(C)C)c1O` registered a melting point of 146 to 148 °C.

With `CC(C)(C)OC(=O)N1CCN(c2cccc3cc[nH]c23)CC1`, the melting point lay within 150 to 151 °C.

Take `CC(=O)Oc1cccc(C(=O)NCCO[N+](=O)[O-])c1`: the melting point fell in the range of 89 to 91 °C.

Take `COc1ccnc(CCc2nc3cc(C)cnc3[nH]2)c1`: the melting point lay in the range of 150 to 152 °C.

The compound `CCNS(=O)(=O)/C=C/C1=C(C)NC(C)=C(C(=O)OC(C)C)C1c1cccc([N+](=O)[O-])c1` (centres undefined) gave a melting point of 187 to 189 °C.

In turn, `O=c1[nH]c2cscc2c(=O)c2cscc12` gave a melting point of 267 to 270 °C.

For the compound `Cc1cccc(C(Oc2ccc3oc(CCCO)cc3c2)c2cocn2)c1` (centres undefined), the melting point is 101 to 102 °C.

`CCC(C)(C)C1CC=C(C(=O)O)CC1` (centres undefined) came in with a melting point of 123 to 125 °C.

For `COC(=O)C1=CCC(=C2CCC3=C(N=C(C(C)C)C(C(C)C)N3)C2=O)C=C1` (centres undefined), the melting point lay within 100 to 102 °C.

`O=C(CCl)c1ccc2c(c1)Cc1cc(C(=O)CCl)ccc1S2` registered a melting point of 175 to 177 °C.

The compound `Cc1nc(-c2ccc(C(=O)O)cc2)sc1C(=O)O` showed a melting point of over 300 °C.

With `C=C1CS(=O)C2C(NC(=O)COc3ccccc3)C(=O)N2C1C(=O)OCc1ccc([N+](=O)[O-])cc1` (centres undefined), the melting point was in the range of 200 to 201 °C.

Turning to `CSc1ccc(CN(C)CCCCc2ccc(NC(=O)c3cccc4c(=O)c5ccccc5[nH]c34)cc2)cc1`, the melting point was found to be 135 °C.

Turning to `CCN(c1nc(C)cc(C)n1)c1ccc(C(C)C)cc1S(C)(=O)=O`, the melting point is 174 to 175 °C.

On to `O=C(NO)c1ccc(CNC(=O)c2[nH]c(-c3ccoc3)cc2-c2ccc(O)cc2)cc1`, for which the melting point fell in the range of 159 to 160 °C.

For the compound `CC(Cl)c1cc(F)ccc1Oc1nc2ccc(-n3cc(-c4ccccc4)nn3)cc2cc1Cc1ccccc1` (centres undefined), the melting point lay in the range of 151 to 152 °C.

In turn, `O=C(NC(=O)c1c(Cl)cccc1Cl)Nc1cc(Cl)c(OC(F)(F)C(F)Cl)cc1Cl` (centres undefined) had a melting point of 198 to 200 °C.

Regarding `CC(C)(C)OC(=O)n1cc(I)c2ccncc21`, the melting point is 68 to 72 °C.

Turning to `Nc1cc(N)cc(C(c2c(O)c3c(oc2=O)CCCCCC3)C2CC2)c1` (centres undefined), the melting point was 87 °C.

The compound `COC(=O)c1ccc(NC(=O)CCc2cnoc2-c2ccccc2)cc1` had a melting point of 111 to 112 °C.

Regarding `COC(=O)CN(C1c2cc(Cl)ccc2OC(C)(C)C1O)S(C)(=O)=O` (centres undefined), the melting point fell in the range of 148 to 150 °C.

In turn, `O=C(c1ccc(F)cc1)C1CCN(CCN2CNc3ccccc3C2=O)CC1` came in with a melting point of 203 °C.

Consider `CCOC(=O)CC(NS(=O)(=O)c1cccc(-c2cccc(NC(=NC#N)NC3CC3)c2)c1)c1ccccc1` (centres undefined), for which the melting point was 82 °C.

As to `CS(=O)(=O)Nc1ccc2ncnc(N)c2c1`, the melting point lay within 287 to 290 °C.

In turn, `Fc1cc(F)c2c(c1)C[C@@H](n1c(CCNCc3ccccc3)c[nH]c1=S)CO2` displayed a melting point of 188 to 190 °C.

With `Cc1cn(C(c2ccccc2)(c2ccccc2)c2ccccc2)cn1`, the melting point is 214 to 216 °C.

Consider `Nc1nnc2ccccc2n1`, for which the melting point lay in the range of 208 to 210 °C.

In turn, `Cc1c(C#N)sc(N=Nc2c(NCC(C)O)nc(NCC(C)O)c(C#N)c2C)c1C#N` (centres undefined) showed a melting point of 268 to 269 °C.

`CNC(=O)c1cc2c(Oc3ccc(C(=O)NCCN4CCOCC4)cc3)cncc2s1`: the melting point lay in the range of 226 to 228 °C.

For the compound `Nc1nc(N)c(-c2cc(Cl)cc(Cl)c2Cl)c(CO)n1`, the melting point lay in the range of 101 to 105 °C.

For the compound `O=C(O)c1cc(-c2ccc3c(c2)CCO3)nn(CC=Cc2ccc(Cl)cc2)c1=O`, the melting point was in the range of 177 to 181 °C.

Take `CCOc1ccc2cccnc2c1N`: the melting point lay in the range of 94 to 95 °C.

`CCC1=CC(=O)c2ccccc2C1=O` showed a melting point of 87 to 88 °C.

`COc1cc(C)c(C(=O)c2c(F)ncc(C)c2I)c(OC)c1OC`: the melting point lay in the range of 140 to 141 °C.

`CCOc1csc2c(O)c(SC)cnc12` showed a melting point of 180 to 183 °C.

`O=Cc1ccc(Cl)c(OCCCC(=O)N(CCO)CCCCC2CCCC2)c1[N+](=O)[O-]` had a melting point of 107 to 108 °C.

For `CCCCCCCC(=O)NNC(=O)N1Cc2ccccc2Oc2ccc(C(F)(F)F)cc21`, the melting point is 97 to 100 °C.

`N#Cc1cnn(-c2ccc(Cl)cc2Cl)c1NN`: the melting point lay within 199 to 204 °C.

With `COC(=O)C(=C(C)C)N1C(=O)[C@H]([C@H](C)OC(=O)OCc2ccc([N+](=O)[O-])cc2)[C@@H]1Cl`, the melting point lay in the range of 154 to 157 °C.

For `NS(=O)(=O)c1ccccc1C1CO1` (centres undefined), the melting point fell in the range of 136 to 139 °C.

`CSc1cccc(Oc2ncc(F)cc2C(=O)N[C@H]2CC[C@@H](CO)CC2)c1` came in with a melting point of 123 to 126 °C.

`CON(C)C(=O)CN1CCC(CCN2CCN(c3cccc(C)c3C)CC2)CC1` yielded a melting point of 66 °C.

On to `Cn1c(OC(F)F)n[nH]c1=O`, for which the melting point came out at 111 °C.

For the compound `CC(C)(C)c1cc(C(=O)c2cc[nH]n2)cc(C(C)(C)C)c1O`, the melting point fell in the range of 216 to 219 °C.

The compound `Cc1ccc(CC(N)=O)cn1` yielded a melting point of 175 to 177 °C.

`OCCCCN1CCC(C(O)(c2ccc(F)cc2)c2ccc(F)cc2)CC1` had a melting point of 130 to 131 °C.

`CCc1nc2c(Br)cccc2cc1C` yielded a melting point of 54 °C.

In turn, `CC1=NN(c2ccc(Cl)cc2)C(c2ccc(N)c(C)c2)C1` (centres undefined) displayed a melting point of 180 to 184 °C.

As to `C=CC1=CC=C(OC)C(OC)([N+](=O)[O-])C1` (centres undefined), the melting point fell in the range of 140 to 141 °C.

`O=C(Cc1cccs1)Nc1n[nH]c2cc(Cl)ccc12`: the melting point turned out to be 210 °C.

`O=C(O)CNS(=O)(=O)c1ccc(N2CCN(c3ccccc3)CC2)cc1` yielded a melting point of 120 to 124 °C.

`FC(F)(F)c1cc(NC(=S)N[C@@H]2CCCC[C@H]2NCc2ccccc2)cc(C(F)(F)F)c1`: the melting point was in the range of 140 to 141 °C.

Take `COCCN1CN(C)C(=O)N(c2nc3c(s2)C(=O)CC(C)(C)C3)C1`: the melting point fell in the range of 136 to 137 °C.

In turn, `NC(N)=NC(=O)Cc1c(-c2ccccc2)csc1-c1ccc(Oc2ccccc2)cc1` yielded a melting point of 116 to 118 °C.
